The test has as its system Wistar rats after chronic unpredictable mild stress. Put plainly: CUMS model: Porsolt forced swimming test. Format: in vivo. Conditions: FQSE 0.05 mg/kg i.n.; Diazepam 0.5 mg/kg i.p.; 18 injections. As for the experimental part:
During stress, the animals were placed in individual cells and exposed to stressful conditions each day for 26 days. Two stressors were used daily, applied in the following order: • Day 1. 10 am-6 pm, rats were placed in a cold room for an hour. From 6 PM to 10 am the lights were turned on and off every 2 hours. • Day 2. 10 am-6 pm, cage tilted to 45°. From 6 PM to 10 am water deprivation. • Day 3. 10 am-6 pm, stroboscopic light. From 6 PM to 10 am the light was left on overnight. • Day 4. 10 am-6 pm, wet bedding. From 6 PM to 10 am the animals were put in a small mouse cage. • Day 5. 10 am-6 pm, no bedding. From 6 PM to 10 am the lights were turned on and off every 2 hours. • Day 6. 10 am-6 pm, a new rat was placed in the cage (6-month-old). From 6 PM to 10 am the light was left on overnight. • Day 7. 10 am-6 pm, white noise. From 6 PM to 10 am a stroboscopic light was turned on at night. • Day 8-26. Repetition of previously used stressors in the specified sequence. […]
The forced swim test is a rodent behavioral test used for the evaluation of antidepressant drugs, antidepressant efficacy of new compounds, and experimental manipulations that are aimed at rendering or preventing depressive-like states. […] In the last 6 minutes, the duration of active (vigorous movement of all limbs) and passive (weak strokes of the hind limbs) swimming and immobility duration were recorded. […]

`CN1C(=O)CN=C(c2ccccc2)c2cc(Cl)ccc21` [Diazepam]: the immobilization time result is recorded as “did not differ”.

(Values after patent US12178838B2, “Synthetic neuromodulatory peptides” (Lactocore, Inc., priority 2019, dated 2024).)
